Results on two molecules are retold here after US10869874B2, “Methods and compositions for topical delivery of prostaglandins to subcutaneous fat” (Topokine Therapeutics, Inc., priority 2013, dated 2020).

Each structure is given as a SMILES string.

One data set concerns abdominal fat. Put plainly: randomized placebo-controlled trial for reduction of abdominal fat. It counts as in vivo, human. As to conditions: compared to vehicle alone. The source says:
The following experiment describes a randomized, placebo-controlled, double-blind trial in human subjects to test whether the safety and efficacy of a PFPRA pharmaceutical composition for reduction of abdominal fat. The composition can be, for example, as described in Example 1, wherein the PFPRA is latanoprost. Alternatively, the PFPRA can be tafluprost. Other alternatives within the scope of the invention can also be used. Eligible subjects (for example, n=60) with excess anterior abdominal fat are entered into a randomized double-blind study. […] Subjects are instructed to apply, once a day, a metered dose, for example, of 2 ml over a 200 cm^2 application area on the anterior abdomen. The application area is standardized, for example, by use of a template that is centered on the umbilicus. Serial clinical assessments, subjective patient assessments, photographs, and magnetic resonance imaging (MRI) scans are performed prior to the first dose and then, for example, at 6 and 12 weeks. Treatment continues, for example, for a total of 12 weeks.

Data set [1] can be described thus: skin permeation ex vivo, Franz-type diffusion cell. It counts as in vitro ADME, human. The conditions noted are these: free acid recovered in dermis and receptor fluid. Here is the method:
Skin permeation studies were conducted with various formulations of latanoprost, ex vivo, on fresh human skin. Fresh human skin was obtained from live donors undergoing abdominoplasty and mounted on a standard (Franz-type) diffusion cell apparatus. All test articles contained 0.8% (weight/weight) of latanoprost. Each test article (8 mg) was uniformly applied to a skin surface of 0.8 cm^2. All formulations were tested on skin from at least two different donors. Treated skin was left open to the atmosphere to simulate clinical conditions. Receptor fluid flowed continuously over 24 hours and was collected in fractions. The amount of active drug metabolite (latanoprost free acid) in these fractions was determined by Liquid Chromatography/Tandem Mass Spectrometry. The following amounts of drug were recovered from receptor fluid over 24 hours:
Skin permeation studies were conducted with various formulations of latanoprost 0.5%, ex vivo, on fresh human skin, as described in the foregoing example. All formulations comprised ethanol (70%) and oleic acid (1.5%, 3% or 4.5%) with the remainder essentially as propylene glycol (28.5%, 27% or 25.5%, respectively). All studies were run in duplicate.

`CC(C)OC(=O)CCC/C=C\C[C@@H]1[C@@H](/C=C/C(F)(F)COc2ccccc2)[C@H](O)C[C@@H]1O` [tafluprost]: the “satisfaction with cosmetic appearance” value in the data set on abdominal fat was “more satisfied with their cosmetic appearance”. With `CC(C)OC(=O)CCC/C=C\C[C@@H]1[C@@H](CC[C@@H](O)CCc2ccccc2)[C@H](O)C[C@@H]1O` [latanoprost], the “satisfaction with cosmetic appearance” value in the data set with abdominal fat is “more satisfied with their cosmetic appearance”. In data set [1], the “conversion of prodrug in skin samples” value is recorded as “converted (hydrolyzed) to the active metabolite, latanoprost free acid”.
